One test deals with T1, μ-opioid receptor (Homo sapiens, UniProt P35372).
T1 construct: host or cells: CHO cells
The test can be described thus: Opioid receptor function test (antagonist activity) against 30 nM DAMGO. Type of test: cell-based. Particulars: antagonist activity vs 30 nM DAMGO. On the procedure: (§1) Method: Using a Lance Ultra cAMP kit (manufactured by PerkinElmer, Inc.), the investigation was conducted in accordance with the prescribed method. In the evaluations of agonist activity, CHO cells expressing each of the human opioid receptors (δ, μ and κ: accession numbers and catalog numbers listed below) and each test compound were reacted for 30 minutes in an assay buffer (1×HBSS, 1 M HEPES, pH 7.4, 250 mM IBMX (isobutylmethylxanthine), 7.5% BSA) in the presence of 10 μM forskolin. Subsequently, the cAMP detection reagent included in the kit was added, and after 1 hour, a time-resolved fluorescence measurement was performed using an EnVision plate reader (manufactured by PerkinElmer, Inc.). […] The Emax value was calculated as the ratio of the maximum response of the test compound relative to a value of 100% for the maximum response of each control drug.
(§2) Evaluations of antagonist activity relative to the μ- and κ-opioid receptors were conducted using the same method as (1) above. A fixed concentration of each control drug (μ: 30 nM DAMGO, κ: 100 nM U-69593), the test compound and CHO cells expressing each of the human opioid receptors were reacted for 30 minutes in an assay buffer in the presence of 10 μM forskolin. The test compounds were evaluated in a concentration range from 10^−12 to 10^−5 M, and subsequent operations were conducted in the same manner as the agonist activity evaluations. A dose-response curve was determined for each test compound using a value of 100% for the response of each control drug in the absence of the test compound, and the concentration that inhibited 50% of the control drug response (namely, the IC50 value) was calculated.

In test [1] the target is T2, κ-opioid receptor (Homo sapiens, UniProt P41145).
T2 construct: host or cells: CHO cells
The test can be described thus: Opioid receptor function test (antagonist activity) against 100 nM U-69593. The format is cell-based. Conditions: antagonist activity vs 100 nM U-69593. As to the method:
as §1, §2

Test [2] deals with mouse. The test can be described thus: Mouse contextual fear conditioning test (effect on extinction learning of fear memories). Conditions: 5, 10, 20 mg/kg p.o. two hours before second day test; second and third days; test time 6 minutes; vs solvent group (FIG. 1). The format is in vivo. As to the method: The effect of the compound of Example 7 on extinction learning of fear memories was investigated in a mouse contextual fear conditioning test. The test was conducted in accordance with the method described in Non-Patent Document 4. Administration of the compound of Example 7 (5, 10, 20 mg/kg p.o.) or a solvent was conducted two hours prior to placing the mouse in the experimental chamber on the second day.

For test [3], the system named is mouse. In words: Mouse contextual fear conditioning test (effect on reconsolidation of fear memories), s.c. immediately after second day test. The format is in vivo. Conditions: 1 mg/kg, 3 mg/kg s.c. immediately after second day test; third day; vs solvent group (FIG. 3).
The subject of test [4] is mouse. The test can be described thus: Mouse contextual fear conditioning test (effect on reconsolidation of fear memories), p.o. before second day test. The format is in vivo. Particulars: 20 mg/kg p.o. two hours before second day test; second and third days; test time 2 minutes; vs solvent group (FIG. 2). As to the method: <Mouse Contextual Fear Conditioning Test (Effect on Reconsolidation of Fear Memories)> Using the same contextual fear conditioning test as Example 41, the effect on the reconsolidation of fear memories was investigated. The test was conducted in accordance with the method described in Non-Patent Document 4. Administration of the compound of Example 7 (20 mg/kg p.o.) or a solvent was conducted two hours prior to placing the mouse in the experimental chamber on the second day. In this test, the test time on the second and third days was set to 2 minutes.

For test [5], the target named is T2, κ-opioid receptor. The test can be described thus: Opioid receptor function test (agonist activity), Lance Ultra cAMP kit, CHO cells expressing human κ-opioid receptor. The format is cell-based. Particulars: maximum response not reached, response rate at maximum concentration (10 μM), relative to U-69593, read-out: κ-receptor Emax (*response rate at the maximum concentration, reference value). On the procedure:
The functional activity of the compounds provided by the present invention relative to μ-, δ- and κ-opioid receptors was investigated.
as §1
SNC80: (+)-4-[(aR)-α-((2S,5R)-4-allyl-2,5-dimethyl-1-piperazinyl)-3-methoxybenzyl]-N,N-diethylbenzamide DAMGO: [D-Ala^2,N-MePhe^4,Gly-ol]enkephalin U-69593: (+)-(5α,7α,8β)-N-methyl-N-[7-(1-pyrrolidinyl)-1-oxaspiro[4.5]dec-8-yl]benzeneacetamide

The conditions of test [6]: animal model, Non-Patent Documents 4 and 5; cited from earlier work.

SMILES strings stand for the structures.

T1 sequence (P35372 whole entry): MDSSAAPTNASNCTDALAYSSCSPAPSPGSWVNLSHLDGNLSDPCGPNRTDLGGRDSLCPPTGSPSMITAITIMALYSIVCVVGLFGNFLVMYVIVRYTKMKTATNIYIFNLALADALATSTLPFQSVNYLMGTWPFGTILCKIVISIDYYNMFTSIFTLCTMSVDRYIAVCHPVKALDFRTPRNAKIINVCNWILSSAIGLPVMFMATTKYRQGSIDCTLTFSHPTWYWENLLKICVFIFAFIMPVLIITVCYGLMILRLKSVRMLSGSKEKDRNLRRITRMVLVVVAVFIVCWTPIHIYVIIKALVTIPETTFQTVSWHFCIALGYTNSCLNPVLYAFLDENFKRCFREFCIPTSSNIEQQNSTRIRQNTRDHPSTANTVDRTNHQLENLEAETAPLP
T2 sequence (P41145 whole entry): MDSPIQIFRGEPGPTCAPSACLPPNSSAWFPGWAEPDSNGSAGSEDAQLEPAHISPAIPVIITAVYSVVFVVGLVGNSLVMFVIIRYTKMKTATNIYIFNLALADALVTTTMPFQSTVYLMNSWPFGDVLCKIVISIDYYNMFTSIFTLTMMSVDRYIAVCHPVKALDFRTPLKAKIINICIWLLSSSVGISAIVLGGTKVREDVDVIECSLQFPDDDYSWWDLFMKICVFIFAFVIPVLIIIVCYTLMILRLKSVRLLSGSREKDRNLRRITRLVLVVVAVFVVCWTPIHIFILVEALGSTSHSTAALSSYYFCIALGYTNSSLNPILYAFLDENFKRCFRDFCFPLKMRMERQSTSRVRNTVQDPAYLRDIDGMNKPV

As for `O=C(c1cccc[n+]1[O-])N1C[C@H]2C[C@@]34CC[C@@H]1[C@@H]2[C@@]31CCN(CC2CC2)[C@@H]4Cc2ccc(O)cc21` [Example 1, 2-((1S,3aR,5aS,6R,11bR,11cS)-14-(cyclopropylmethyl)-10-hydroxy-2,3,3a,4,5,6,7,11c-octahydro-1H-6,11b-(epiminoethano)-1,5a-methanonaphtho[1,2-e]indole-3-carbonyl)pyridine 1-oxide], the IC50 at μ-opioid receptor was found to be 4.1 nM; at κ-opioid receptor [1], 3.3 nM.

In the case of `O=C(c1ccc[nH]c1=O)N1C[C@H]2C[C@@]34CC[C@@H]1[C@@H]2[C@@]31CCN(CC2CC2)[C@@H]4Cc2ccc(O)cc21` [Example 3, 3-((1S,3aR,5aS,6R,11bR,11cS)-14-(cyclopropylmethyl)-10-hydroxy-2,3,3a,4,5,6,7,11c-octahydro-1H-6,11b-(epiminoethano)-1,5a-methanonaphtho[1,2-e]indole-3-carbonyl)pyridin-2(1H)-one], the IC50 on μ-opioid receptor came to 4.6 nM; on κ-opioid receptor [1], 11.1 nM.

In the case of `O=C(c1cccc(=O)[nH]1)N1C[C@H]2C[C@@]34CC[C@@H]1[C@@H]2[C@@]31CCN(CC2CC2)[C@@H]4Cc2ccc(O)cc21` [Example 7, 6-((1S,3aR,5aS,6R,11bR,11cS)-14-(cyclopropylmethyl)-10-hydroxy-2,3,3a,4,5,6,7,11c-octahydro-1H-6,11b-(epiminoethano)-1,5a-methanonaphtho[1,2-e]indole-3-carbonyl)pyridin-2(1H)-one], the IC50 is 1.3 nM on μ-opioid receptor and 4.6 nM at κ-opioid receptor [1]. Also, the “fear response (freezing behavior, % of test time)” value with mouse [2] was “significant reduction in fear response”. The “fear response (freezing behavior)” value in the test on mouse [3] and with mouse [4] was “significant reduction in fear response” throughout.

Regarding `Cn1cc(C(=O)N2C[C@H]3C[C@@]45CC[C@@H]2[C@@H]3[C@@]42CCN(CC3CC3)[C@@H]5Cc3ccc(O)cc32)ccc1=O` [Example 9, 5-((1S,3aR,5aS,6R,11bR,11cS)-14-(cyclopropylmethyl)-10-hydroxy-2,3,3a,4,5,6,7,11c-octahydro-1H-6,11b-(epiminoethano)-1,5a-methanonaphtho[1,2-e]indole-3-carbonyl)-1-methylpyridin-2(1H)-one], the IC50 on μ-opioid receptor was found to be 2.4 nM; on κ-opioid receptor [1], 3.3 nM.

Take `Cn1c(C(=O)N2C[C@H]3C[C@@]45CC[C@@H]2[C@@H]3[C@@]42CCN(CC3CC3)[C@@H]5Cc3ccc(O)cc32)cccc1=O` [Example 10, 6-((1S,3aR,5aS,6R,11bR,11cS)-14-(cyclopropylmethyl)-10-hydroxy-2,3,3a,4,5,6,7,11c-octahydro-1H-6,11b-(epiminoethano)-1,5a-methanonaphtho[1,2-e]indole-3-carbonyl)-1-methylpyridin-2(1H)-one]: the IC50 on μ-opioid receptor amounted to 5.7 nM; on κ-opioid receptor [1], 3.4 nM.

For `O=C(c1cc(=O)cc[nH]1)N1C[C@H]2C[C@@]34CC[C@@H]1[C@@H]2[C@@]31CCN(CC2CC2)[C@@H]4Cc2ccc(O)cc21` [Example 14, 2-((1S,3aR,5aS,6R,11bR,11cS)-14-(cyclopropylmethyl)-10-hydroxy-2,3,3a,4,5,6,7,11c-octahydro-1H-6,11b-(epiminoethano)-1,5a-methanonaphtho[1,2-e]indole-3-carbonyl)pyridin-4(1H)-one], the Emax at 10 µM on κ-opioid receptor [5] is 5.7%.

With `CCn1cc(C(=O)N2C[C@H]3C[C@@]45CC[C@@H]2[C@@H]3[C@@]42CCN(CC3CC3)[C@@H]5Cc3ccc(O)cc32)ccc1=O` [Example 28, 5-((1S,3aR,5aS,6R,11bR,11cS)-14-(cyclopropylmethyl)-10-hydroxy-2,3,3a,4,5,6,7,11c-octahydro-1H-6,11b-(epiminoethano)-1,5a-methanonaphtho[1,2-e]indole-3-carbonyl)-1-ethylpyridin-2(1H)-one], the figures for the IC50 on μ-opioid receptor and at κ-opioid receptor [1] were 2.1 nM and 4 nM, respectively.

For `C=CCN1C[C@H](C)N([C@H](c2ccc(C(=O)N(CC)CC)cc2)c2cccc(OC)c2)C[C@H]1C` [SNC80, (+)-4-[(aR)-α-((2S,5R)-4-allyl-2,5-dimethyl-1-piperazinyl)-3-methoxybenzyl]-N,N-diethylbenzamide], the “anxiolytic effect through the extinction of anxiety or fear memories” value in test [6] is on record as “exhibited an anxiolytic effect”.

By IC50 is commonly meant the concentration needed to halve the response being measured.
